Measured values: PMC9374667 (Communications Biology, 2022)
Values joined by “and” are separate entries in the source; they are usually repeats but may differ in a detail not shown here. Equal values may be shown once.

How the values were obtained:
[1] = In vitro dissolution studies: dynamic solubility in buffers and simulated biological fluids; format: physicochemical; details: CMC-Na, mean
Procedure: Solubilities were determined by adding excess sample to 30 mL different mediums, such as HCl solution, acetate buffer, phosphate buffer, SGF, FaSSIF and FeSSIF. The configuration of various buffer solutions is shown in Supplementary Table 2. After being shaken at 400 rpm at 37 °C for 0.5, 1, 2, and 24 h, 0.3 mL of suspension was sampled and centrifuged at 14,000 rpm for 8 min to isolate mother liquor, and then analyzed by HPLC after dilution. All samples were analyzed in triplicate.

[2] = pH of the solution after 24 hours of the dissolution test; format: physicochemical
Procedure: Solubilities were determined by adding excess sample to 30 mL different mediums, such as HCl solution, acetate buffer, phosphate buffer, SGF, FaSSIF and FeSSIF. The configuration of various buffer solutions is shown in Supplementary Table 2. After being shaken at 400 rpm at 37 °C for 0.5, 1, 2, and 24 h, 0.3 mL of suspension was sampled and centrifuged at 14,000 rpm for 8 min to isolate mother liquor, and then analyzed by HPLC after dilution. All samples were analyzed in triplicate. […]
into a 1000 mL flask followed by addition of about 800 mL of deionized water. The mixture is stirred until all solids are dissolved.
Add about 100 mL of 0.1 N HCl, check pH value with a pH meter and adjust the pH to 2.0 with HCl (1 N) or NaOH (1 N). Then dilute to the volume with deionized water.
* 1N sodium hydroxide: Weigh 8 g NaOH in a 200 mL plastic volumetric flask, add deionized water to volume and mix well. […]
phosphate and 3.093 g sodium chloride in a 500 mL volumetric flask, add about 0.450 L deionized water, and adjust the pH to 6.5 with 1N sodium hydroxide or 1 N hydrochloric acid. Make up to volume (0.5 […]
Step 2: Place and dissolve 1.120 g FaSSIF/FeSSIF/FaSSGF instant powder with 0.250 L of buffer (from step 1) in a 500 mL volumetric flask, then add buffer (from step 1) to volume, and mix well. […]
g sodium chloride in a 500 mL volumetric flask, add about 0.450 L deionized water, and adjust the pH to 5.0 with 1 N sodium hydroxide or 1 N hydrochloric acid. Make up to volume (500 mL) with
Step 2: Place and dissolve 5.600 g FaSSIF/FeSSIF/FaSSGF instant […]
0.750 L deionized water. Make up to volume (1000 mL) with deionized water and placed overnight.
(1 picture or pasted object on this page, not shown here)

db/db mice [3] = experiment: HE staining of epididymal adipose tissue, adipocyte size; format: in vivo; details: for Cell diameter (adipocyte size of eWAT): individual cells
Procedure: The adipose tissue was fixed overnight in 4% paraformaldehyde, then embedded in paraffin and cut into 5 µm thick slices. Tissue sections were stained with hematoxylin and eosin (H&E). For immunohistochemistry, sections were incubated with primary antibodies against F4/80 (1:100 dilution) diluted in the blocking solution at 4 °C overnight. The tissue sections were then incubated with the horseradish peroxidase (HRP)-conjugated secondary antibody at room temperature for 2 h. Finally, the sections were developed with diaminobenzidine (DAB) and counterstained with hematoxylin. Images were obtained under a microscope. To quantify the F4/80-positive macrophages, two random fields per sample were analyzed by Image J software. The IHC profiler plugin of ImageJ was used to calculate the F4/80 positive area.

db/db mice [4] = experiment: Weekly fasting glucose levels of db/db mice; format: in vivo; details: for Weekly fasting glucose levels of db/db mice (Figure 5a): individual mice 1-10, in mmol/L; for Fasting blood glucose level at the end of the treatment: mouse, in vivo
Procedure: The lean wild type control and the db/db control mice were given equal vehicle volume (0.5% CMC-Na solution). All mice were monitored for food intake, body weight, and fasting blood glucose during the 35-day trial. Glucose tolerance test (GTT) and insulin resistance test (ITT) were performed at 4 and 5 weeks of treatment, respectively. Metabolic analysis was performed at 5 weeks of treatment. At the end of the study, blood samples were taken through the retroorbital venous sinus of mice, fat depots (brown fat, inguinal subcutaneous fat, epididymal fat, perirenal fat and mesenteric fat depot) were dissected, weighed, and immediately frozen in liquid nitrogen and stored at −80 °C until required. Weight of fat depots are expressed in percentage (fat depots weight /bodyweight * 100%).

db/db mice [5] = experiment: Fasting serum insulin levels (ELISA); format: in vivo; details: db/db mice; for insulin level (Figure 5b): fasting serum, individual mice 1-6; for Fasting serum insulin levels: 35 days of treatment, vs vehicle
Procedure: (§1) Mice were fasted for 4 h for insulin resistance test and intraperitoneally injected with 1 unit/kg of insulin. Blood glucose levels were measured from the tail vein blood at 0, 15, 30, 45, 60, 90, and 120 min after injection. Plasma insulin levels were measured using an ultrasensitive mouse insulin ELISA kit (Nanjing Jiancheng Bioengineering Institute, Nanjing, China).

db/db mice [6] = experiment: Insulin tolerance test (ITT), AUC and initial slope; format: in vivo; details: for blood glucose level: individual mice, in mmol/L (unit assumed); for Initial Slope: individual animals (Figure S10a)
Procedure: as §1

Structure (SMILES): CC(C)Cc1ccc(C(C)C(=O)[O-])cc1.COc1ccc2cc3[n+](cc2c1OC)CCc1cc2c(cc1-3)OCO2.O.O.O.O [BJ, berberine-ibuprofen]
- BBR dissolved in CMC-Na (Figure S7a) ([1]; time 0.5): 0.8321
- Ibu dissolved in CMC-Na (Figure S7b) ([1]; time 0.5): 0.4805
- BBR dissolved in CMC-Na (Figure S7a) ([1]; time 1): 1.458
- Ibu dissolved in CMC-Na (Figure S7b) ([1]; time 1): 0.5844
- BBR dissolved in CMC-Na (Figure S7a) ([1]; time 2): 1.5642
- Ibu dissolved in CMC-Na (Figure S7b) ([1]; time 2): 0.6306
- BBR dissolved in CMC-Na (Figure S7a) ([1]; time 24): 1.6671
- Ibu dissolved in CMC-Na (Figure S7b) ([1]; time 24): 0.6693
- pH of the solution after 24 hours ([2]; Acetate buffer, blank vehicle 4.54): 4.82
- pH of the solution after 24 hours ([2]; CMC-Na, blank vehicle 6.51): 6.70
- pH of the solution after 24 hours ([2]; FaSSIF-v1, blank vehicle 6.51): 5.50
- pH of the solution after 24 hours ([2]; FeSSIF-v1, blank vehicle 5.04): 5.17
- pH of the solution after 24 hours ([2]; HCl solution, blank vehicle 1.08): 1.03
- pH of the solution after 24 hours ([2]; Phosphate buffer, blank vehicle 6.84): 6.90
- pH of the solution after 24 hours ([2]; SGF, blank vehicle 2.03): 5.38
- Cell diameter (adipocyte size of eWAT) (db/db mice [3]; 75 mg/kg): 121.031 µm and 117.863 µm and 116.509 µm and 116.462 µm and 115.083 µm and 111.737 µm and 111.179 µm and 109.716 µm and 106.71 µm and 106.209 µm and 103.54 µm and 98.2043 µm and 95.428 µm and 94.4084 µm and 90.8792 µm and 133.968 µm and 130.976 µm and 129.724 µm and 125.916 µm and 124.05 µm
- Cell diameter (adipocyte size of eWAT) (db/db mice [3]; 150 mg/kg): 102.304 µm and 92.1827 µm and 91.4137 µm and 90.3818 µm and 88.4919 µm and 87.3914 µm and 86.5338 µm and 86.4994 µm and 85.9825 µm and 85.1497 µm and 81.6079 µm and 81.6018 µm and 80.5245 µm and 80.4936 µm and 112.756 µm and 110.047 µm and 105.5 µm and 104 µm and 102.927 µm
- Size of adipocytes in eWAT compared with vehicle (db/db mice [3]; BJ 75 and 150 mg/kg, BBR 150 mg/kg, Ibu 150 mg/kg): significantly reduced
- Weekly fasting glucose levels of db/db mice (Figure 5a) (db/db mice [4]; BJ 75mg/kg, 1st of 6 weekly columns (time not given)): 10.4 and 12.5 and 9.4 and 17.8 and 11.6 and 18.6 and 12.1 and 17.5 and 20.6 and 14.4
- Weekly fasting glucose levels of db/db mice (Figure 5a) (db/db mice [4]; BJ 75mg/kg, 2nd of 6 weekly columns (time not given)): 21.7 and 12.2 and 16.6 and 18.3 and 16.2 and 21.2 and 15.0 and 18.5 and 24.4 and 17.9
- Weekly fasting glucose levels of db/db mice (Figure 5a) (db/db mice [4]; BJ 75mg/kg, 3rd of 6 weekly columns (time not given)): 27.0 and 17.1 and 16.6 and 26.0 and 22.1 and 24.6 and 22.7 and 19.1 and 24.8 and 20.1
- Weekly fasting glucose levels of db/db mice (Figure 5a) (db/db mice [4]; BJ 75mg/kg, 4th of 6 weekly (time not given)): 16.0 and 19.4 and 17.3 and 23.1 and 21.0 and 18.7 and 20.0 and 16.7 and 18.3 and 19.6
- Weekly fasting glucose levels of db/db mice (Figure 5a) (db/db mice [4]; BJ 75mg/kg, 5th of 6 weekly (time not given)): 8.5 and 16.1 and 10.1 and 17.8 and 19.9 and 13.5 and 18.2 and 12.3 and 18.1 and 11.2
- Weekly fasting glucose levels of db/db mice (Figure 5a) (db/db mice [4]; BJ 75mg/kg, 6th of 6 weekly (time not given)): 8.3 and 14.2 and 11.5 and 16.0 and 17.3 and 15.9 and 14.1 and 11.0 and 16.7 and 10.7
- Weekly fasting glucose levels of db/db mice (Figure 5a) (db/db mice [4]; BJ 150mg/kg, 1st of 6 weekly columns (time not given)): 19.4 and 13.4 and 14.8 and 9.9 and 15.4 and 23.3 and 12.6
- Weekly fasting glucose levels of db/db mice (Figure 5a) (db/db mice [4]; BJ 150mg/kg, 2nd of 6 weekly columns (time not given)): 13.5 and 10.8 and 19.3 and 10.6 and 16.2 and 16.8 and 22.9 and 16.4
- Weekly fasting glucose levels of db/db mice (Figure 5a) (db/db mice [4]; BJ 150mg/kg, 3rd of 6 weekly columns (time not given)): 19.8 and 11.7 and 18.2 and 15.6 and 20.6 and 18.3
- Weekly fasting glucose levels of db/db mice (Figure 5a) (db/db mice [4]; BJ 150mg/kg, 4th of 6 weekly (time not given)): 11.5 and 5.7 and 10.5 and 13.7 and 14.1 and 14.7
- Weekly fasting glucose levels of db/db mice (Figure 5a) (db/db mice [4]; BJ 150mg/kg, 5th of 6 weekly (time not given)): 6.7 and 14.3 and 13.7 and 9.3 and 8.8 and 13.9
- Weekly fasting glucose levels of db/db mice (Figure 5a) (db/db mice [4]; BJ 150mg/kg, 6th of 6 weekly (time not given)): 6.5 and 5.0 and 10.0 and 11.4 and 7.4 and 7.3 and 17.8
- Blood (serum) glucose levels compared with vehicle (db/db mice [4]; db/db mice, BJ 75 and 150 mg/kg, BBR 150 mg/kg, Ibu 150 mg/kg): slowed the increase in glucose levels
- Fasting blood glucose level at the end of the treatment (db/db mice [4]; 75 mg/kg): 13.6 ± 3.0 mmol/L
- Fasting blood glucose level at the end of the treatment (db/db mice [4]; 150 mg/kg): 9.4 ± 3.6 mmol/L
- insulin level (Figure 5b) (db/db mice [5]; BJ 75mg/kg): 10.1686 and 14.5706 and 11.3611 and 13.6498 and 12.9045 and 14.3689
- insulin level (Figure 5b) (db/db mice [5]; BJ 150mg/kg): 10.5413 and 10.778 and 14.6188 and 12.4266 and 11.7294 and 13.6718
- Fasting serum insulin levels (db/db mice [5]; 75 mg/kg): did not produce significant effects
- Fasting serum insulin levels (db/db mice [5]; 150 mg/kg): significantly reduced the fasting serum insulin levels
- blood glucose level (db/db mice [6]; BJ 75mg/kg, time column 1 of 7 (time not printed)): 18.5 and 19.1 and 12.0 and 14.2 and 11.0 and 11.7 and 16.7 and 19.2 and 21.8 and 15.9
- blood glucose level (db/db mice [6]; BJ 75mg/kg, time column 2 of 7 (time not given)): 19.2 and 21.2 and 12.1 and 14.6 and 8.3 and 11.4 and 18.6 and 22.2 and 23.5 and 18.5
- blood glucose level (db/db mice [6]; BJ 75mg/kg, time column 3 of 7 (time not given)): 18.3 and 19.0 and 10.1 and 10.5 and 8.8 and 7.5 and 13.7 and 19.3 and 20.1 and 11.6
- blood glucose level (db/db mice [6]; BJ 75mg/kg, time column 4 of 7 (time not given)): 13.0 and 15.2 and 7.6 and 10.0 and 6.8 and 7.5 and 12.1 and 16.3 and 20.8 and 11.0
- blood glucose level (db/db mice [6]; BJ 75mg/kg, time column 5 of 7 (time not given)): 12.4 and 16.1 and 8.4 and 8.8 and 5.9 and 7.1 and 11.2 and 16.2 and 16.3 and 10.1
- blood glucose level (db/db mice [6]; BJ 75mg/kg, time column 6 of 7 (time not given)): 10.2 and 13.2 and 6.9 and 8.2 and 5.3 and 6.4 and 9.7 and 13.6 and 14.6 and 9.4
- blood glucose level (db/db mice [6]; BJ 75mg/kg, time column 7 of 7 (time not printed)): 12.1 and 12.2 and 9.0 and 9.8 and 4.9 and 5.5 and 10.8 and 12.3 and 14.9 and 10.0
- blood glucose level (db/db mice [6]; BJ 150mg/kg, time column 1 of 7 (time not printed)): 18.0 and 17.8 and 9.3 and 14.4 and 11.4
- blood glucose level (db/db mice [6]; BJ 150mg/kg, time column 2 of 7 (time not given)): 13.2 and 15.0 and 7.7 and 11.7 and 11.6
- blood glucose level (db/db mice [6]; BJ 150mg/kg, time column 3 of 7 (time not given)): 7.7 and 7.0 and 1.7 and 6.1
- blood glucose level (db/db mice [6]; BJ 150mg/kg, time column 4 of 7 (time not given)): 7.2 and 6.7 and 1.5 and 6.3
- blood glucose level (db/db mice [6]; BJ 150mg/kg, time column 5 of 7 (time not given)): 9.0 and 8.2 and 3.3 and 5.2
- blood glucose level (db/db mice [6]; BJ 150mg/kg, time column 6 of 7 (time not given)): 8.2 and 7.6 and 2.8 and 7.0
- blood glucose level (db/db mice [6]; BJ 150mg/kg, time column 7 of 7 (time not printed)): 10.4 and 7.7 and 4.0 and 7.3
- Insulin sensitivity (ITT) (db/db mice [6]; db/db mice, 150 mg/kg, week 5): more sensitive to insulin stimulation
- Initial Slope (db/db mice [6]; db/db mice, BJ 75mg/kg): -0.0733 mmol/L/min and -0.14 mmol/L/min and -0.1 mmol/L/min and 0.0033 mmol/L/min and -0.0567 mmol/L/min and -0.1433 mmol/L/min and -0.0067 mmol/L/min and -0.0033 mmol/L/min and -0.0633 mmol/L/min and -0.1233 mmol/L/min
- Initial Slope (db/db mice [6]; db/db mice, BJ 150mg/kg): -0.1767 mmol/L/min and -0.22 mmol/L/min and -0.15 mmol/L/min and -0.28 mmol/L/min and -0.3433 mmol/L/min and -0.36 mmol/L/min and -0.2533 mmol/L/min and -0.2467 mmol/L/min
